In article PMC6669564, “Cytotoxic Sesquiterpenoid Quinones and Quinols, and an 11-Membered Heterocycle, Kauamide, from the Hawaiian Marine Sponge Dactylospongia elegans” (Marine Drugs, 2019):

Biological target: β-secretase 1 (BACE1) (Homo sapiens, UniProt P56817)
Experiment: HitHunter BACE1 enzyme fragment complementation chemiluminescence assay, […] h incubation, dose response
Assay type: biochemical

β-secretase 1 (BACE1), sequence (P56817 46-457): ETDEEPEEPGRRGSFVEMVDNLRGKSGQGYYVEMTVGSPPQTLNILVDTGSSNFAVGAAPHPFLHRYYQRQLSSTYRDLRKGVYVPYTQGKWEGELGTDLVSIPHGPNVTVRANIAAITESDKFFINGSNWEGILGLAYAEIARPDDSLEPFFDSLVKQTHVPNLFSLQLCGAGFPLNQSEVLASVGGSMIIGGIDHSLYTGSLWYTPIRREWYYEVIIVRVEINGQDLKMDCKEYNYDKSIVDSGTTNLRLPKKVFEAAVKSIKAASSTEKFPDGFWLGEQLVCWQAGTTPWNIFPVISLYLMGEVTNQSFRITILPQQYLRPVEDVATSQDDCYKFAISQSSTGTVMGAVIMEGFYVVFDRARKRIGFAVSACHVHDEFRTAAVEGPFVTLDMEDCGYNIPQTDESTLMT

Compound	IC50 [µM]
C=C1CCC[C@H]2[C@](C)(CC3=C(O)C(=O)C=C(OC)C3=O)[C@@H](C)CC[C@]12C [compound 1, ilimaquinone]	65
C=C1CCC[C@H]2[C@](C)(CC3=C(O)C(=O)C=C(N)C3=O)[C@@H](C)CC[C@]12C [compound 3, smenospongine]	78
